From the kinase profiling compilation of Christmann-Franck et al. (2016)
Each block holds one compound with its values, some of them ahead of it.

Experiments:
Test in all cases: radiometric filter-binding kinase assay
[1] = biological target: MAPKAPK3 (human) (UniProt Q16644)
[2] = biological target: NEK2 (human) (UniProt P51955)
[3] = biological target: MAPK14 (human) (UniProt Q16539)
[4] = biological target: RPS6KA5 KD1 KD2 (human) (UniProt O75582)
[5] = biological target: YES1 (human) (UniProt P07947)
[6] = test system: RPS6KB1 (human), P23443 [T412E]
[7] = biological target: RPS6KA1 KD1 KD2 (human) (UniProt Q15418)
[8] = biological target: HIPK1 (human) (UniProt Q86Z02)
[9] = biological target: HIPK2 (human) (UniProt Q9H2X6)
[10] = biological target: JAK2 JH1 JH2 (human) (UniProt O60674)
[11] = biological target: NEK6 (human) (UniProt Q9HC98)
[12] = biological target: NTRK1 (human) (UniProt P04629)
[13] = biological target: MAPK11 (human) (UniProt Q15759)
[14] = biological target: PRKCA (human) (UniProt P17252)
[15] = biological target: INSR (human) (UniProt P06213)
[16] = biological target: DYRK2 (human) (UniProt Q92630)
[17] = test system: AKT2 (human), P31751 [S474D]
[18] = biological target: CLK2 (human) (UniProt P49760)
[19] = biological target: IRAK4 (human) (UniProt Q9NWZ3)
[20] = biological target: STK11 CAB39 STRADA (human) (UniProt Q9Y376+Q7RTN6+Q15831)
[21] = biological target: SRPK1 (human) (UniProt Q96SB4)
[22] = biological target: MARK4 (human) (UniProt Q96L34)
[23] = biological target: MARK3 (human) (UniProt P27448)
[24] = biological target: MAP3K1 (human) (UniProt Q13233)
[25] = biological target: BTK (human) (UniProt Q06187)
[26] = biological target: MAPK15 (human) (UniProt Q8TD08)
[27] = biological target: INSRR (human) (UniProt P14616)
[28] = biological target: CSNK1D (human) (UniProt P48730)
[29] = biological target: RIPK2 (human) (UniProt O43353)
[30] = biological target: MAP3K9 (human) (UniProt P80192)
[31] = biological target: MKNK2 (human) (UniProt Q9HBH9)
[32] = biological target: CSNK2A1 (human) (UniProt P68400)
[33] = biological target: AURKA (human) (UniProt O14965)
[34] = biological target: MAPK1 (human) (UniProt P28482)
[35] = biological target: FLT1 (human) (UniProt P17948)
Chain of FLT1 (human) (P17948 whole entry, looked up): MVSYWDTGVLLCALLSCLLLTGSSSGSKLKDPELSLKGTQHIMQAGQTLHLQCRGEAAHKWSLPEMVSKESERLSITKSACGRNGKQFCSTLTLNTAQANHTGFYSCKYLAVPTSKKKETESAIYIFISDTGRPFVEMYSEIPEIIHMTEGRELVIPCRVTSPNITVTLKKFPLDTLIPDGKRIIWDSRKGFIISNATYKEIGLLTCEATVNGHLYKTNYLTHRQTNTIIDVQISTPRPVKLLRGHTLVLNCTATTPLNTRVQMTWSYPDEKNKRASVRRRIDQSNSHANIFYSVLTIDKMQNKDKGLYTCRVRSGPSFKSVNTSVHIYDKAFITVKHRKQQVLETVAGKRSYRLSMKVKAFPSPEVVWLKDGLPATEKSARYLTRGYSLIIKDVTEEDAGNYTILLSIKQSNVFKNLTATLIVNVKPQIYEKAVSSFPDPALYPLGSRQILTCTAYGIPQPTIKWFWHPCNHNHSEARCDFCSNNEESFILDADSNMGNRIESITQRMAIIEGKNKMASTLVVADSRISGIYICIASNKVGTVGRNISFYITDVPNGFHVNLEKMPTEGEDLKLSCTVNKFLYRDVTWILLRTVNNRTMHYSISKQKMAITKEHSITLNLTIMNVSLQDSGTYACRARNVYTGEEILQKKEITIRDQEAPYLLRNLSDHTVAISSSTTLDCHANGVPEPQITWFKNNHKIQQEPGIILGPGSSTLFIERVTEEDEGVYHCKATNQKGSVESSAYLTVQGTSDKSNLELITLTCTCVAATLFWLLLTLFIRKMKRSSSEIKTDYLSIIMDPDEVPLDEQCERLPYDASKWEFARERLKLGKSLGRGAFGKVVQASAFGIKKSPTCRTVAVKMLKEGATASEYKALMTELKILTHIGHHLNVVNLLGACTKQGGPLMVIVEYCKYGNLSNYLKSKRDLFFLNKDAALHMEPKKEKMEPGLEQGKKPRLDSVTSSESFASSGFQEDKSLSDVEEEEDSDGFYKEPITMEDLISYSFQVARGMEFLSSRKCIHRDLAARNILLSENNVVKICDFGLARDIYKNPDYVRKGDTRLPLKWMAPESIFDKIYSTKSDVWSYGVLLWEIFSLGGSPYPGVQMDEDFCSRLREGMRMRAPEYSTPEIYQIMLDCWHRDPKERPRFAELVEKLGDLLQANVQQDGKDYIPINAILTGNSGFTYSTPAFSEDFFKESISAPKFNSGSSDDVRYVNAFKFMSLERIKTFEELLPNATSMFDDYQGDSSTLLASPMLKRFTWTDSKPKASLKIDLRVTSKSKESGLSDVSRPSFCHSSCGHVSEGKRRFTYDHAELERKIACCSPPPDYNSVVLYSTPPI

Chain of SRPK1 (human) (Q96SB4 whole entry, looked up): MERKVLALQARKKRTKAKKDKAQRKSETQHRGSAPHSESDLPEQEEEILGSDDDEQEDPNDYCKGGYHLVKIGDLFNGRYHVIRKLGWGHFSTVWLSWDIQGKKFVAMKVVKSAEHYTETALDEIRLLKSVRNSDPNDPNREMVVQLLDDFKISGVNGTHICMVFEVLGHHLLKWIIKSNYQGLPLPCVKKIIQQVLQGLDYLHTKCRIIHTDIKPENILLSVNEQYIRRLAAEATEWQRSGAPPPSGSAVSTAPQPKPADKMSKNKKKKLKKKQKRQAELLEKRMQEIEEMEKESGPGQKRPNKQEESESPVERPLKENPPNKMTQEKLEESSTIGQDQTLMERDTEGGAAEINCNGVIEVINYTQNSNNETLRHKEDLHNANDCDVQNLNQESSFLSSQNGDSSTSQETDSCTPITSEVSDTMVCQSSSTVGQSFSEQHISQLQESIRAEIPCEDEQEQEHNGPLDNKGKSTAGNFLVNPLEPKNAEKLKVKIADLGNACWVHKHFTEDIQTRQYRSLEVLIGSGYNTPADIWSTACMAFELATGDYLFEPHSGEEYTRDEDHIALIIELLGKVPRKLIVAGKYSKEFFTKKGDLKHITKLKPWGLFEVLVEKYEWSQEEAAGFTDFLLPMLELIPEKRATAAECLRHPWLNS
Chain of YES1 (human) (P07947 whole entry, looked up): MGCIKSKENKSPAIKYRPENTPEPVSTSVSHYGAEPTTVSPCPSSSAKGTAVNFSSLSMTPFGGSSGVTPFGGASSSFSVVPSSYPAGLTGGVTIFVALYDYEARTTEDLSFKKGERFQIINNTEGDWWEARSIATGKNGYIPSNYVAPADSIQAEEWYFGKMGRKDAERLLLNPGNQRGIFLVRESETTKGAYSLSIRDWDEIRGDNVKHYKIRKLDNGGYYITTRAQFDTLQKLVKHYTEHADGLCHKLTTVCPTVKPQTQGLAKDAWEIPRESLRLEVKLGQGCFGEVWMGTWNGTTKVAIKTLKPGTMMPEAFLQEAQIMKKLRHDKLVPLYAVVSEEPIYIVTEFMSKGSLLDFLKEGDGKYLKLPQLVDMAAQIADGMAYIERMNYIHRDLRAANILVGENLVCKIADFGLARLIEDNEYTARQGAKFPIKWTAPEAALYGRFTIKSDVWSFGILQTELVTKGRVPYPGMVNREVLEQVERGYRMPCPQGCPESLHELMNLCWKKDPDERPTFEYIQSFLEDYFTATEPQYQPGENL
Chain of MAPK15 (human) (Q8TD08 whole entry, looked up): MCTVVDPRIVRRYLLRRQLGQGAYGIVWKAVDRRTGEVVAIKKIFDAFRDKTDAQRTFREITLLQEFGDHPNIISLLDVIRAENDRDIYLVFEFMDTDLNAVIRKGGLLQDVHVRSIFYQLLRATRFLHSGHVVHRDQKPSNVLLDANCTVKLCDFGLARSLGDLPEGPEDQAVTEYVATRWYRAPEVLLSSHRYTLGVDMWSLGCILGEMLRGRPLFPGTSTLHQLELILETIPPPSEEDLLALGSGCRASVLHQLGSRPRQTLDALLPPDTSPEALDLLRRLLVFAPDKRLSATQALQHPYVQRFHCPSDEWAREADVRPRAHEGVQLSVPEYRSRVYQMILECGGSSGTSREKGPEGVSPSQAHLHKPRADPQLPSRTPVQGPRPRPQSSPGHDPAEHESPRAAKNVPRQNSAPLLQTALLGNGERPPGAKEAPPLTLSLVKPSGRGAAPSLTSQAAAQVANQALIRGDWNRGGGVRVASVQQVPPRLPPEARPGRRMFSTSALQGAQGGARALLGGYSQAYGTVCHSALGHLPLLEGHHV
Chain of MAPK14 (human) (Q16539 whole entry, looked up): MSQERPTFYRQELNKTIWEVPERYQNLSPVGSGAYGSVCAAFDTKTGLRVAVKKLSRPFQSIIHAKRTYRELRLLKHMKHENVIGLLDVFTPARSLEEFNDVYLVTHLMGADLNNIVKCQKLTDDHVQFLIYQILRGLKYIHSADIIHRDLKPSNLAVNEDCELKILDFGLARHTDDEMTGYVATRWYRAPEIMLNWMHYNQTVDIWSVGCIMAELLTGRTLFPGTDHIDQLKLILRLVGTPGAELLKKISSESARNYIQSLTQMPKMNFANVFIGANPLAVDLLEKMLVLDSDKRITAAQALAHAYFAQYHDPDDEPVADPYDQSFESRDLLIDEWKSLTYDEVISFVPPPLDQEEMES
Chain of CSNK1D (human) (P48730 whole entry, looked up): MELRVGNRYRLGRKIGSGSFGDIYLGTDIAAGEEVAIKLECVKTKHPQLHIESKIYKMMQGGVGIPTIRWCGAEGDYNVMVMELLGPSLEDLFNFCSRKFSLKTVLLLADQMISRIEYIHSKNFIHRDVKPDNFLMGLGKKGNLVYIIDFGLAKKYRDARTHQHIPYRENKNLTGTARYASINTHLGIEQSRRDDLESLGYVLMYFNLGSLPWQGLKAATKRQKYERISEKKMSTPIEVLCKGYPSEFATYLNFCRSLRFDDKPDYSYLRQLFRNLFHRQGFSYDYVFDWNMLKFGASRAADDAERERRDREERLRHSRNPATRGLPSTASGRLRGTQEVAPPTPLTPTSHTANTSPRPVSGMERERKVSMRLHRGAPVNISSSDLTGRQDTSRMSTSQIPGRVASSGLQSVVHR
Chain of MAPK11 (human) (Q15759 whole entry, looked up): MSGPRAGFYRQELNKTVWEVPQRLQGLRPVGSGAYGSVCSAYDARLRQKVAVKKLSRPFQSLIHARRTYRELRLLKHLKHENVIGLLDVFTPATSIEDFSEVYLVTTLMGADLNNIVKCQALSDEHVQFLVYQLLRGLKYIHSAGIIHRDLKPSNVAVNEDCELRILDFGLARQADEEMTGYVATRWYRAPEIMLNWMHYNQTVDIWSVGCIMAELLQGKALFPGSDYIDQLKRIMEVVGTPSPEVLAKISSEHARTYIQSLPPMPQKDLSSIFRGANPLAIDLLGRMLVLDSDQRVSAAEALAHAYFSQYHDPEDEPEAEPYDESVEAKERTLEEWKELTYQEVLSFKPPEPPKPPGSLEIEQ

residual activity ([1]; compound 0.1 µM): 120% | residual activity ([1]; compound 1.0 µM): 85% | residual activity ([1]; compound 10.0 µM): 47% | residual activity ([2]; compound 0.1 µM): 93% | residual activity ([2]; compound 1.0 µM): 94% | residual activity ([2]; compound 10.0 µM): 82% | residual activity ([3]; compound 0.1 µM): 101% | residual activity ([3]; compound 1.0 µM): 92% | residual activity ([3]; compound 10.0 µM): 95% | residual activity ([4]; compound 0.1 µM): 104% | residual activity ([4]; compound 1.0 µM): 101% | residual activity ([4]; compound 10.0 µM): 99% | residual activity ([5]; compound 0.1 µM): 99% | residual activity ([5]; compound 1.0 µM): 112% | residual activity ([6]; compound 0.1 µM): 99% | residual activity ([6]; compound 1.0 µM): 97% | residual activity ([6]; compound 10.0 µM): 69% | residual activity ([7]; compound 0.1 µM): 109% | residual activity ([7]; compound 1.0 µM): 101% | residual activity ([7]; compound 10.0 µM): 105% | residual activity ([8]; compound 0.1 µM): 110% | residual activity ([8]; compound 1.0 µM): 112% | residual activity ([8]; compound 10.0 µM): 101% | residual activity ([9]; compound 0.1 µM): 108% | residual activity ([9]; compound 1.0 µM): 113% | residual activity ([9]; compound 10.0 µM): 60% | residual activity ([10]; compound 0.1 µM): 98% | residual activity ([10]; compound 1.0 µM): 98% | residual activity ([10]; compound 10.0 µM): 103% | residual activity ([11]; compound 1.0 µM): 102% | residual activity ([11]; compound 10.0 µM): 111% | residual activity ([12]; compound 0.1 µM): 92% | residual activity ([12]; compound 1.0 µM): 110% | residual activity ([12]; compound 10.0 µM): 97% | residual activity ([13]; compound 0.1 µM): 121% | residual activity ([13]; compound 10.0 µM): 128% | residual activity ([14]; compound 0.1 µM): 96% | residual activity ([14]; compound 1.0 µM): 111% | residual activity ([14]; compound 10.0 µM): 96% | residual activity ([15]; compound 1.0 µM): 117% | residual activity ([16]; compound 0.1 µM): 97% | residual activity ([16]; compound 1.0 µM): 88% | residual activity ([16]; compound 10.0 µM): 104% | residual activity ([17]; compound 0.1 µM): 92% | residual activity ([17]; compound 1.0 µM): 72% | residual activity ([17]; compound 10.0 µM): 10% | residual activity ([18]; compound 0.1 µM): 88% | residual activity ([18]; compound 1.0 µM): 102% | residual activity ([18]; compound 10.0 µM): 94% | residual activity ([19]; compound 1.0 µM): 101% | residual activity ([19]; compound 10.0 µM): 79% | residual activity ([20]; compound 0.1 µM): 104% | residual activity ([20]; compound 1.0 µM): 111% | residual activity ([20]; compound 10.0 µM): 114% | residual activity ([21]; compound 0.1 µM): 89% | residual activity ([21]; compound 1.0 µM): 86% | residual activity ([21]; compound 10.0 µM): 63% | residual activity ([22]; compound 0.1 µM): 87% | residual activity ([22]; compound 1.0 µM): 97% | residual activity ([22]; compound 10.0 µM): 77% | residual activity ([23]; compound 0.1 µM): 99% | residual activity ([23]; compound 1.0 µM): 114% | residual activity ([23]; compound 10.0 µM): 118% | residual activity ([24]; compound 0.1 µM): 112% | residual activity ([24]; compound 1.0 µM): 115% | residual activity ([24]; compound 10.0 µM): 95% | residual activity ([25]; compound 0.1 µM): 118% | residual activity ([25]; compound 1.0 µM): 115% | residual activity ([25]; compound 10.0 µM): 110% | residual activity ([27]; compound 0.1 µM): 99% | residual activity ([27]; compound 1.0 µM): 97% | residual activity ([27]; compound 10.0 µM): 77% | residual activity ([28]; compound 0.1 µM): 92% | residual activity ([28]; compound 1.0 µM): 103% | residual activity ([28]; compound 10.0 µM): 105% | residual activity ([29]; compound 0.1 µM): 95% | residual activity ([29]; compound 1.0 µM): 108% | residual activity ([29]; compound 10.0 µM): 110% | residual activity ([30]; compound 0.1 µM): 91% | residual activity ([30]; compound 1.0 µM): 100% | residual activity ([30]; compound 10.0 µM): 86% | residual activity ([31]; compound 0.1 µM): 99% | residual activity ([31]; compound 10.0 µM): 126% | residual activity ([32]; compound 0.1 µM): 79% | residual activity ([32]; compound 1.0 µM): 94% | residual activity ([32]; compound 10.0 µM): 94% | residual activity ([33]; compound 0.1 µM): 108% | residual activity ([33]; compound 1.0 µM): 102% | residual activity ([33]; compound 10.0 µM): 30% | residual activity ([34]; compound 10.0 µM): 111% | residual activity ([35]; compound 0.1 µM): 120% | residual activity ([35]; compound 10.0 µM): 30%
SMILES: CC1=C(CO)C(=O)O[C@@H]([C@@H](C)[C@H]2CC[C@H]3[C@@H]4C[C@H]5O[C@]56[C@@H](O)C=CC(=O)[C@]6(C)C4CC[C@]23C)C1 (stereo not given in full)
residual activity ([26]; compound 1.0 µM): 115% | residual activity ([26]; compound 10.0 µM): 72%

residual activity ([1]; compound 0.1 µM): 114% | residual activity ([1]; compound 1.0 µM): 62% | residual activity ([1]; compound 10.0 µM): 30% | residual activity ([2]; compound 0.1 µM): 108% | residual activity ([2]; compound 1.0 µM): 99% | residual activity ([2]; compound 10.0 µM): 88% | residual activity ([3]; compound 0.1 µM): 94% | residual activity ([3]; compound 1.0 µM): 94% | residual activity ([3]; compound 10.0 µM): 83% | residual activity ([4]; compound 0.1 µM): 120% | residual activity ([4]; compound 1.0 µM): 105% | residual activity ([4]; compound 10.0 µM): 99% | residual activity ([5]; compound 0.1 µM): 112% | residual activity ([5]; compound 1.0 µM): 89% | residual activity ([5]; compound 10.0 µM): 55% | residual activity ([6]; compound 0.1 µM): 99% | residual activity ([6]; compound 1.0 µM): 95% | residual activity ([6]; compound 10.0 µM): 80% | residual activity ([7]; compound 0.1 µM): 106% | residual activity ([7]; compound 1.0 µM): 100% | residual activity ([7]; compound 10.0 µM): 76% | residual activity ([8]; compound 0.1 µM): 111% | residual activity ([8]; compound 1.0 µM): 104% | residual activity ([8]; compound 10.0 µM): 130% | residual activity ([9]; compound 1.0 µM): 113% | residual activity ([9]; compound 10.0 µM): 78% | residual activity ([10]; compound 0.1 µM): 101% | residual activity ([10]; compound 1.0 µM): 102% | residual activity ([10]; compound 10.0 µM): 79% | residual activity ([11]; compound 0.1 µM): 109% | residual activity ([11]; compound 1.0 µM): 96% | residual activity ([11]; compound 10.0 µM): 66% | residual activity ([12]; compound 1.0 µM): 100% | residual activity ([12]; compound 10.0 µM): 83% | residual activity ([13]; compound 0.1 µM): 118% | residual activity ([13]; compound 1.0 µM): 126% | residual activity ([13]; compound 10.0 µM): 117% | residual activity ([14]; compound 0.1 µM): 101% | residual activity ([14]; compound 10.0 µM): 90% | residual activity ([15]; compound 0.1 µM): 123% | residual activity ([16]; compound 0.1 µM): 101% | residual activity ([16]; compound 1.0 µM): 105% | residual activity ([16]; compound 10.0 µM): 52% | residual activity ([17]; compound 1.0 µM): 90% | residual activity ([17]; compound 10.0 µM): 69% | residual activity ([18]; compound 0.1 µM): 86% | residual activity ([18]; compound 1.0 µM): 43% | residual activity ([18]; compound 10.0 µM): 9% | residual activity ([19]; compound 0.1 µM): 94% | residual activity ([19]; compound 1.0 µM): 62% | residual activity ([19]; compound 10.0 µM): 24% | residual activity ([20]; compound 0.1 µM): 118% | residual activity ([20]; compound 1.0 µM): 103% | residual activity ([20]; compound 10.0 µM): 97% | residual activity ([21]; compound 0.1 µM): 89% | residual activity ([21]; compound 1.0 µM): 63% | residual activity ([21]; compound 10.0 µM): 19% | residual activity ([22]; compound 0.1 µM): 107% | residual activity ([22]; compound 1.0 µM): 87% | residual activity ([22]; compound 10.0 µM): 49% | residual activity ([23]; compound 0.1 µM): 113% | residual activity ([23]; compound 1.0 µM): 115% | residual activity ([24]; compound 0.1 µM): 102% | residual activity ([24]; compound 1.0 µM): 109% | residual activity ([24]; compound 10.0 µM): 109% | residual activity ([25]; compound 0.1 µM): 120% | residual activity ([25]; compound 1.0 µM): 118% | residual activity ([25]; compound 10.0 µM): 107% | residual activity ([27]; compound 0.1 µM): 99% | residual activity ([27]; compound 1.0 µM): 79% | residual activity ([27]; compound 10.0 µM): 53% | residual activity ([28]; compound 0.1 µM): 96% | residual activity ([28]; compound 1.0 µM): 96% | residual activity ([28]; compound 10.0 µM): 92% | residual activity ([29]; compound 0.1 µM): 93% | residual activity ([29]; compound 10.0 µM): 39% | residual activity ([30]; compound 0.1 µM): 99% | residual activity ([30]; compound 1.0 µM): 95% | residual activity ([31]; compound 0.1 µM): 111% | residual activity ([31]; compound 10.0 µM): 26% | residual activity ([32]; compound 0.1 µM): 100% | residual activity ([32]; compound 1.0 µM): 97% | residual activity ([32]; compound 10.0 µM): 93% | residual activity ([33]; compound 1.0 µM): 102% | residual activity ([33]; compound 10.0 µM): 84% | residual activity ([34]; compound 0.1 µM): 102% | residual activity ([34]; compound 10.0 µM): 81% | residual activity ([35]; compound 10.0 µM): 65%
SMILES: Cc1ccc(-c2ccc3c(ccc4sc5c(c43)NC[C@@H](C)NC5=O)n2)cn1
residual activity ([26]; compound 0.1 µM): 96% | residual activity ([26]; compound 1.0 µM): 79% | residual activity ([26]; compound 10.0 µM): 38%
